{"source": "patent US7091183B1", "about": "(Boston Medical Center Corporation, priority 1996, dated 2006)", "key": {"[1]": {"target": "T1, rat GIP receptor (Rattus norvegicus, UniProt P43219)", "T1 construct": "expressed in transfected cells; host or cells: L cells (LGIPR2), also carrying a VIP-promoter/lacZ cAMP reporter", "T1 sequence (P43219 19-455)": "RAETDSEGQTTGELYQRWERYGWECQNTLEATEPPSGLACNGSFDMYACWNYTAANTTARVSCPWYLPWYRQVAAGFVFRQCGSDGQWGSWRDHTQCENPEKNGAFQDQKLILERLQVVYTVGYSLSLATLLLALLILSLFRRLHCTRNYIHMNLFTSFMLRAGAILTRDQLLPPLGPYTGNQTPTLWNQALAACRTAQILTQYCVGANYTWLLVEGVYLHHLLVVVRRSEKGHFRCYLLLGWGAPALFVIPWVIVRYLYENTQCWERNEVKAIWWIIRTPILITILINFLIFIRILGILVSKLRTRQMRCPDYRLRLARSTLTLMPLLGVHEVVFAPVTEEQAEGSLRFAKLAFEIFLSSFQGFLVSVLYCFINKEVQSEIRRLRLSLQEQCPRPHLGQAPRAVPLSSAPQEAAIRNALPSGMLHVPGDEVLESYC", "experiment": "cAMP-dependent β-galactosidase production in LGIPR2 cells (agonist activity)", "format": "cell-based", "details": "for β-gal level stimulated by peptide alone: FIG. 1B; for stimulation of cAMP-dependent β-galactosidase production (versus GIP (1–42) / above control levels): 10^−8 M peptide, 4 h", "text": "LGIPR2 cells are stably transfected with a cAMP-dependent promoter from the VIP gene fused to the bacterial lac Z gene. When intracellular cAMP increases within these cells, lac Z gene transcription is activated, resulting in the accumulation of its product, β-galactosidase. The measurement of β-galactosidase in this system provided a convenient, inexpensive, and nonradioactive method for detecting changes in the levels of intracellular cAMP. […] The medium was then removed and wells rinsed once with phosphate-buffered saline (PBS). The plates were then blotted briefly and frozen overnight at −70° C., and, after the addition of chlorophenol red-β-D-galactopyranoside, accumulated β-galactosidase was detected using a calorimetric assay, as described previously (Usdin, et al., 1993, Endocrinology, 133:2861–2870). […] Natl. Acad. Sci. USA, 90:1992–1996)."}, "[2]": {"test_system": "fasted anesthetized rats", "experiment": "Intravenous infusion of peptides in fasting anesthetized rats, plasma insulin", "format": "in vivo, rat", "details": "for plasma insulin level after infusion: 30 min i.v. infusion"}, "[3]": {"target": "T2, GIP receptor (Mus musculus, UniProt Q0P543)", "T2 construct": "host or cells: βTC3 cells (endogenous receptor)", "T2 sequence (Q0P543 19-460)": "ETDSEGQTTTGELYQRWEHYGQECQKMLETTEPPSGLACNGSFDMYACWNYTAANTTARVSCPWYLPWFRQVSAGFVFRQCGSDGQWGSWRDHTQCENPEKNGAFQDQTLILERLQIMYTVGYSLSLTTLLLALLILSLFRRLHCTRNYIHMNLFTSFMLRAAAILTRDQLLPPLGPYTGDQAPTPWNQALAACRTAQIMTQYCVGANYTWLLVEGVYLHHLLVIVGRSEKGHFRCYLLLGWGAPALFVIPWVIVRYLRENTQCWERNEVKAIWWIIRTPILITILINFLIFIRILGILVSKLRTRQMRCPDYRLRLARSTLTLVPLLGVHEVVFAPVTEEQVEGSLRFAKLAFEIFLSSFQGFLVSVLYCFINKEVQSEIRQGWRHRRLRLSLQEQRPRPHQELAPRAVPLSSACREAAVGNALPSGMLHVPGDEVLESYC", "details": "βTC3 cells; cited from earlier work"}, "[4]": {"target": "T1, rat GIP receptor", "experiment": "Inhibition of GIP (1–42)-stimulated cAMP-dependent β-galactosidase production in LGIPR2 cells", "format": "cell-based", "details": "10^−8 M GIP (1–42) plus fragment at 10^−8 M or 10^−6 M, 4 h", "procedure": "LGIPR2 cells are stably transfected with a cAMP-dependent promoter from the VIP gene fused to the bacterial lac Z gene. When intracellular cAMP increases within these cells, lac Z gene transcription is activated, resulting in the accumulation of its product, β-galactosidase. The measurement of β-galactosidase in this system provided a convenient, inexpensive, and nonradioactive method for detecting changes in the levels of intracellular cAMP.\nLGIPR2 cells were grown in Dulbecco's Modified Eagle's Medium (DMEM) containing 4.5 g/L of glucose and 10% fetal calf serum. For each assay, 10^5 cells/well were seeded onto 24-well plates. After incubation overnight, peptides were added in various concentrations to the wells in the absence of 3-isobutyl-methylxanthine (IBMX) for 4 h, at which time maximal stimulation of β-galactosidase was determined. The medium was then removed and wells rinsed once with phosphate-buffered saline (PBS). The plates were then blotted briefly and frozen overnight at −70° C., and, after the addition of chlorophenol red-β-D-galactopyranoside, accumulated β-galactosidase was detected using a calorimetric assay, as described previously (Usdin, et al., 1993, Endocrinology, 133:2861–2870).\nValues are expressed as the mean±SE of quadruplicate measurements."}, "[5]": {"test_system": "rats", "details": "exendin-treated rats, cited from earlier work"}, "[6]": {"details": "in vivo; cited from earlier work"}, "[7]": {"test_system": "GIP receptor", "details": "cited from earlier work"}}, "note": "Where “and” joins values, the source holds several entries; their conditions need not be identical. Identical values can stand only once. Like-named read-outs stand apart in the source and are kept apart here. Where no end group is shown, it is not given here.", "data": [{"molecule": "CC[C@H](C)[C@H](NC(=O)[C@H](CO)NC(=O)[C@H](Cc1ccc(O)cc1)NC(=O)[C@H](CC(=O)O)NC(=O)[C@H](CO)NC(=O)[C@@H](NC(=O)[C@H](Cc1ccccc1)NC(=O)[C@@H](NC(=O)CNC(=O)[C@H](CCC(=O)O)NC(=O)[C@H](C)NC(=O)[C@@H](N)Cc1ccc(O)cc1)[C@@H](C)O)[C@@H](C)CC)C(=O)N[C@@H](C)C(=O)N[C@@H](CCSC)C(=O)N[C@@H](CC(=O)O)C(=O)N[C@@H](CCCCN)C(=O)N[C@H](C(=O)N[C@@H](CCCNC(=N)N)C(=O)N[C@@H](CCC(N)=O)C(=O)N[C@@H](CCC(N)=O)C(=O)N[C@@H](CC(=O)O)C(=O)N[C@@H](Cc1ccccc1)C(=O)N[C@H](C(=O)N[C@@H](CC(N)=O)C(=O)N[C@@H](Cc1c[nH]c2ccccc12)C(=O)N[C@@H](CC(C)C)C(=O)N[C@@H](CC(C)C)C(=O)N[C@@H](C)C(=O)N[C@@H](CCC(N)=O)C(=O)N[C@@H](CCCCN)C(=O)NCC(=O)N[C@@H](CCCCN)C(=O)N[C@@H](CCCCN)C(=O)N[C@@H](CC(N)=O)C(=O)N[C@@H](CC(=O)O)C(=O)N[C@@H](Cc1c[nH]c2ccccc12)C(=O)N[C@@H](CCCCN)C(=O)N[C@@H](Cc1c[nH]cn1)C(=O)N[C@@H](CC(N)=O)C(=O)N[C@@H](CC(C)C)C(=O)N[C@H](C(=O)N[C@@H](CCC(N)=O)C(=O)O)[C@@H](C)O)C(C)C)[C@@H](C)CC", "note": "[GIP, glucose-dependent insulinotropic polypeptide]", "values": [{"measurement": "β-gal level stimulated by peptide alone", "setting": "[1]", "result": "0.95±0.04", "unit": "O.D."}, {"measurement": "concentration giving maximum effect on β-galactosidase production", "setting": "[1]; at 4 h", "result": "10^−8 M"}, {"measurement": "plasma insulin level after infusion", "setting": "[2]; GIP 0.5 nmol/kg", "result": "43.5±2.7", "unit": "μIU/ml"}, {"measurement": "plasma insulin level after infusion", "setting": "[2]; GIP 1.0 nmol/kg", "result": "61.6±4.2", "unit": "μIU/ml"}, {"measurement": "plasma insulin level after infusion", "setting": "[2]; GIP 1.5 nmol/kg", "result": "72.4±3.5", "unit": "μIU/ml"}]}, {"molecule": "CC[C@H](C)[C@H](NC(=O)[C@H](Cc1ccccc1)NC(=O)[C@H](CCC(=O)O)NC(=O)[C@H](CCCCN)NC(=O)[C@H](C)NC(=O)[C@H](C)NC(=O)[C@H](CCC(N)=O)NC(=O)CNC(=O)[C@H](CCC(=O)O)NC(=O)[C@H](CC(C)C)NC(=O)[C@H](Cc1ccc(O)cc1)NC(=O)[C@H](CO)NC(=O)[C@H](CO)NC(=O)[C@@H](NC(=O)[C@H](CC(=O)O)NC(=O)[C@H](CO)NC(=O)[C@@H](NC(=O)[C@H](Cc1ccccc1)NC(=O)[C@@H](NC(=O)CNC(=O)[C@H](CCC(=O)O)NC(=O)[C@H](C)NC(=O)[C@@H](N)Cc1c[nH]cn1)[C@@H](C)O)[C@@H](C)O)C(C)C)C(=O)N[C@@H](C)C(=O)N[C@@H](Cc1c[nH]c2ccccc12)C(=O)N[C@@H](CC(C)C)C(=O)N[C@H](C(=O)N[C@@H](CCCCN)C(=O)NCC(=O)N[C@@H](CCCNC(=N)N)C(N)=O)C(C)C", "note": "[GLP-1, glucagon like peptide-1 (7–36)]", "values": [{"measurement": "plasma insulin level at 30 min", "setting": "[2]; GLP-1 0.4 nmol/kg infusion", "result": "50.3±3.7", "unit": "μIU/ml"}]}, {"molecule": "N=C(N)NCCC[C@H](N)C(=O)O", "note": "[arginine]", "values": [{"measurement": "plasma insulin level at 30 min", "setting": "[2]; arginine 375 mg/kg infusion", "result": "69.7±5.8", "unit": "μIU/ml"}]}, {"molecule": "GIP (1–30)-NH2 (YAEGTFISDYSIAMDKIRQQDFVNWLLAQK-NH2; listed as Rattus norvegicus)", "values": [{"measurement": "stimulation of cAMP-dependent β-galactosidase production (versus GIP (1–42) / above control levels)", "setting": "[1]", "result": "nearly equipotent"}, {"measurement": "binding of GIP (1–42) to the GIP receptor", "setting": "[3]", "result": "competitively inhibited binding"}]}, {"molecule": "GIP (10–30)-NH2 (YSIAMDKIRQQDFVNWLLAQK-NH2; listed as Rattus norvegicus)", "values": [{"measurement": "stimulation of cAMP-dependent β-galactosidase production (versus GIP (1–42) / above control levels)", "setting": "[1]", "result": "partial agonist activity"}, {"measurement": "β-gal level stimulated by peptide alone", "setting": "[1]", "result": 0.39, "unit": "O.D."}, {"measurement": "antagonism of the cAMP stimulatory effect of GIP (1–42)", "setting": "[4]", "result": "an antagonist, albeit a weak one"}]}, {"molecule": "GIP (16–30)-NH2 (KIRQQDFVNWLLAQK-NH2; listed as Rattus norvegicus)", "values": [{"measurement": "stimulation of cAMP-dependent β-galactosidase production (versus GIP (1–42) / above control levels)", "setting": "[1]", "result": "did not mimic GIP and none"}, {"measurement": "antagonism of the cAMP stimulatory effect of GIP (1–42)", "setting": "[4]", "result": "neither did they inhibit GIP-dependent effects"}]}, {"molecule": "GIP (21–30)-NH2 (DFVNWLLAQK-NH2)", "values": [{"measurement": "stimulation of cAMP-dependent β-galactosidase production (versus GIP (1–42) / above control levels)", "setting": "[1]", "result": "none"}]}, {"molecule": "GIP (31–44) (GKKNDWKHNLTQRE; listed as Rattus norvegicus)", "values": [{"measurement": "stimulation of cAMP-dependent β-galactosidase production (versus GIP (1–42) / above control levels)", "setting": "[1]", "result": "none"}]}, {"molecule": "exendin (9–39)", "values": [{"measurement": "plasma glucose level", "setting": "[5]; increased from 7.5", "result": 8.7, "unit": "mmol/L"}, {"measurement": "reduction of postprandial insulin release", "setting": "[5]", "result": "50% and 48%"}, {"measurement": "reduction of postprandial insulin release", "setting": "[5]; listed as exendin", "result": "~50", "unit": "%"}, {"measurement": "reduction of insulin release following intraduodenal glucose infusion", "setting": "[6]", "result": 70, "unit": "%"}, {"measurement": "GIP binding to its receptor", "setting": "[7]", "result": "displaced GIP binding from its receptor"}, {"measurement": "cAMP generation in response to GIP stimulation", "setting": "[7]", "result": "inhibits cAMP generation"}]}]}
